In PubChem BioAssay (NCI):
Values joined by “and” are separate entries in the source; they are usually repeats but may differ in a detail not shown here. Identical values can stand only once.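 Cells were grown in 96-well plates and exposed to each compound for 48 hours at five concentrations; endpoints were interpolated linearly between bracketing concentrations, or set to the highest concentration if not reached. GI50: concentration for 50% inhibition of growth. At the TGI there is no net growth.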

Assays:
Assay in all cases: NCI-60 cell line screen, 48 h
[1] = tested on: PC-3 prostate
[2] = tested on: RPMI-8226 leukemia
[3] = tested on: HCC-2998 colon
[4] = tested on: UACC-257 melanoma
[5] = tested on: A549 NSCLC
[6] = tested on: CCRF-CEM leukemia
[7] = tested on: M14 melanoma
[8] = tested on: MDA-MB-231 breast
[9] = tested on: HT29 colon
[10] = tested on: MCF7 breast

| Compound | GI50 [1] [µM] | TGI [1] | GI50 [2] [µM] | TGI [2] | GI50 [3] [µM] | TGI [3] | GI50 [4] [µM] | TGI [4] | GI50 [5] [µM] | TGI [5] | GI50 [6] [µM] | TGI [6] [µM] | GI50 [7] [µM] | TGI [7] | GI50 [8] [µM] | TGI [8] | GI50 [9] | TGI [9] | GI50 [10] [µM] | TGI [10] |
| --- | --- | --- | --- | --- | --- | --- | --- | --- | --- | --- | --- | --- | --- | --- | --- | --- | --- | --- | --- | --- |
| O=c1[nH]c(-c2ccc(Cl)c(Cl)c2)cn1-c1ccc(Cl)cc1 | 66.9 | > 100 µM | 56.9 | > 100 µM | 25.2 | 87.9 µM | > 100 | > 100 µM | 21.3 | 48 µM | 40.3 | > 100 | 29.7 | > 100 µM | 15.2 | 46 µM | 41.8 µM | > 100 µM | 56.3 | > 100 µM |
| COc1ccc(Sc2[nH]c(C=O)c3ccccc23)cc1 | 13.3 | 41.4 µM | 7.13 | 26 µM | 5.44 | 18.2 µM | 20.1 | 49.6 µM | 13.3 | > 100 µM | 5.66 | 22.3 | 12.4 | 26 µM | 13.4 | 34.2 µM | 4.02 µM | 14.1 µM | 12.8 | 30.2 µM |
| Cc1nnn(C)c1-c1cnc2c3ccc(C(C)(C)O)cc3n([C@H](c3ccccc3)C3CCOCC3)c2c1 | 0.765 | > 100 µM | < 0.01 | 27.9 µM | 0.0356 | 3.98 µM | < 0.0132 | 31.3 µM | 0.037 | 31.9 µM | 0.0663 | > 100 | < 0.01 | 30.9 µM | < 0.01 | 24.7 µM | < 0.01 µM | > 42 µM | < 0.01 | > 100 µM |
| CCCCCSc1ccc2nc(NC(=O)OCC)sc2c1 | 0.798 | > 100 µM | 1.04 | > 100 µM | 4.88 | > 100 µM | > 100 | > 100 µM | 2.37 | > 100 µM | 0.628 | > 100 | 0.446 | > 100 µM | 0.95 | > 100 µM | 0.348 µM | > 100 µM | 0.3 | > 100 µM |
| COc1cccc(/C=N\NC(=O)c2ccncc2)c1O | 8.01 | > 100 µM | 5.48 | > 100 µM | 4.73 | > 100 µM | 5 | > 100 µM | 11 | > 100 µM | 1.86 | > 100 | 4.68 | > 100 µM | 7.61 | > 100 µM | 21.5 µM | > 100 µM | 6.27 | > 100 µM |
| O=C(Nc1ccc(I)cc1F)c1cc(Br)ccc1O | 1.77 | 7.13 µM | 0.321 | 1.63 µM | 2.77 | 10.7 µM | 0.707 | 4.29 µM | 2.81 | > 100 µM | 1.01 | 19.5 | 0.603 | 4.49 µM | 0.457 | 4.73 µM | 3.29 µM | > 35.1 µM | 0.78 | 7.76 µM |
| CC(=O)O[C@@H]1c2c(c3c(=O)c4cccc(O)c4c(=O)c=3c2=[N+]=[N-])[C@H](OC(C)=O)[C@@H](OC(C)=O)[C@]1(C)O | 0.236 | 1.14 µM and 1 µM |  | 0.361 µM and 0.394 µM | 0.358 | 0.522 µM and 1.22 µM | 0.295 | 1.4 µM and 0.815 µM | 0.0518 | 1.16 µM and 0.228 µM |  | 0.0632 | 0.293 | 0.992 µM and 0.357 µM | 0.335 | 1.46 µM and 1.48 µM | 0.135 µM and 0.113 µM | 0.605 µM and 0.265 µM | 0.142 | 1.11 µM and 0.291 µM |
| COc1cccc(S(=O)(=O)NC2=NCCN2C(=S)SN2CCn3c2nsc3=S)c1 | 36.2 | > 100 µM | 26.1 | 97.6 µM | 41.5 | > 100 µM | 31.5 | 86.2 µM | > 100 | > 100 µM | 32.1 | > 100 | 31.4 | > 100 µM | 28.1 | 96 µM | 40.2 µM | > 100 µM | 39.4 | > 100 µM |
| CC(C)(C)c1cc(C[P+](c2ccccc2)(c2ccccc2)c2ccccc2)cc(C(C)(C)C)c1O | 0.278 | 1.91 µM | 0.178 | 0.627 µM | 0.491 | 10.2 µM | 0.227 | 0.684 µM | 0.392 | 11 µM | 0.545 | 5.33 | 0.398 | 3.53 µM | 0.473 | 2.84 µM | 0.184 µM | 1.65 µM | 0.27 | 4.04 µM |
| c1cc(OCCN2CCCC2)ccc1CNc1ccc2nc(CCC3CCCCC3)[nH]c2c1 | 1.93 | 5.16 µM | 1.35 | 3.64 µM | 2.03 | 4.29 µM | 1.83 | 4.04 µM | 2.47 | 7.52 µM | 1.47 | 6.9 | 1.6 | 3.23 µM | 1.61 | 3.19 µM | 0.535 µM | 2.23 µM | 1.63 | 4.66 µM |
| COc1cc(-n2cc(-c3ccc(Cl)cc3)n(-c3ccccc3)c2=O)cc(OC)c1OC | > 37.7 | > 100 µM | 30.6 | > 100 µM | 22.9 | > 100 µM | 15.5 | 71.9 µM | 19.3 | > 100 µM | 2.67 |  | 23.8 | 98.9 µM | 16.4 | > 68.9 µM | 16.6 µM | > 100 µM | 15.9 | 56 µM |
| COc1ccc(C(=O)/C=C/c2cc(-c3ccc(OC)c(OC)c3)n[nH]2)cc1OC | 1.98 | 35.7 µM | 0.357 | 2.26 µM | 1.74 | 3.19 µM | 2.16 | 5.02 µM | 2.25 | 10.2 µM | 0.364 | 5.52 | 1.91 | 4.11 µM | 1.88 | 6.38 µM | 1.38 µM | 4.95 µM | 0.937 | 8.02 µM |
| NC(=O)c1cn(C2CC(O)C(CO)O2)c2ncnc(N)c12 (stereo not given) | 1.57 | > 35.4 µM | 27.7 | > 100 µM | 1.47 | 5.62 µM | 11 | > 63.4 µM | 5.2 | 41.1 µM | 0.0888 | > 100 | 3.12 | 22.6 µM | 3.26 | 21.2 µM | 2.07 µM | > 54.8 µM | 0.376 | 13.9 µM |
| CCOC(=O)c1ccc(N2NC(=O)/C(=C/c3ccc([N+](=O)[O-])o3)C2=O)cc1 | 21.3 | 55.8 µM | 30.1 | > 96.5 µM | > 41.8 | > 56.5 µM | 16 | 30.8 µM | > 44.7 | > 60.6 µM | 2 | > 61.6 | 17 | 31.6 µM | 22.5 | 52.9 µM | 15.8 µM | 36.2 µM | 17.4 | 35.9 µM |
| CN1CCN(C)C1c1ccc(C2N(C)CCN2C)cc1 | > 100 | > 100 µM | 19.3 | 59.1 µM | 40.5 | > 100 µM | > 100 | > 100 µM | > 100 | > 100 µM | 29.8 | > 100 | 18.6 | 58.2 µM | 18.3 | 96.1 µM | 21.2 µM | 56.4 µM | 20.1 | > 100 µM |
| CC1(C)C(=O)/C=C\C(=O)C(C)(C)C2=CC=C(O2)C(C)(C)C(=O)C(Br)C(Br)C(=O)C(C)(C)C2=CC=C1O2 (stereo not given) |  | > 100 µM |  | 9.56 µM |  | > 100 µM |  | > 100 µM |  | > 100 µM |  | 11.2 |  | > 87 µM |  | > 86.7 µM |  | > 100 µM |  | > 100 µM |
| CC(C)[C@@]12C[C@@H](OC(=O)C3CO3)[C@@](C)(O1)[C@@H]1CC[C@@H](C)[C@H]1[C@@H]2OC(=O)/C=C/c1ccccc1 (stereo not given in full) | 17.4 | 61 µM | 20.4 | 55.2 µM | 18.7 | 35.8 µM | 19.2 | 39.4 µM | 20.4 | 49.5 µM | 29 | > 100 | 24.4 | 88.5 µM | 13.3 | 31.2 µM | 33.6 µM | > 100 µM | 19.8 | 83.3 µM |
| Nc1nc(Sc2ccc([N+](=O)[O-])c3nonc23)c2ncn(C3OC(CO)C(O)C3O)c2n1 (stereo not given) | 3.24 | 26.6 µM | 0.278 | 15.2 µM | 0.777 | 3.49 µM |  | > 44.8 µM | 4.27 | > 100 µM | 0.198 | 6.65 | 0.456 | 8.15 µM | 0.549 | 14.8 µM | 0.846 µM | 16.2 µM | 0.373 | 13.6 µM |
| O=C1OC2(c3ccc(O)cc3Oc3cc(O)ccc32)c2cccc3cccc1c23 | 36.2 | > 100 µM | 21.5 | 56.3 µM | 48.4 | > 100 µM | 23.6 | 67.2 µM | 19.7 | 39.8 µM | 26.5 | > 100 | 22.3 | 56.7 µM | 14.3 | 40.3 µM | 21 µM | 47.4 µM | 19.9 | 91.3 µM |
| COc1cc2c(/C=C3\C(=O)N(C)c4ccccc43)c[nH]c2cc1C | 2.56 | > 100 µM | 1.42 | > 20.1 µM | 1.79 | > 68.3 µM | 23.5 | > 100 µM | 2.39 | > 66.8 µM | 0.957 | 18.8 | 0.541 | > 100 µM | 2.05 | > 100 µM | 0.36 µM |  | 0.12 | > 100 µM |
| CCCCN(CCCC)P(=O)(Oc1ccccc1)Oc1ccccc1 | 3.79 | 17.6 µM | 5.12 | 26.8 µM | 10 | 22.2 µM | 8.04 | 22.4 µM | 5.06 | 19.6 µM | 8.35 | 59.3 | 11.6 | 25.6 µM | 8.08 | 23.3 µM | 4.95 µM | 21.6 µM | 4.83 | 18.6 µM |
